Assay results from ChEMBL document CHEMBL1152784, “Discovery of 4-substituted methoxybenzoyl-aryl-thiazole as novel anticancer agents: synthesis, biological evaluation, and structure-activity relationships” (J Med Chem, 2009).

What was measured:
A-375 = assay: Cytotoxicity against human A375 cells after 48 hrs by SRB assay; format: functional, cell-based; settings: A-375, 48 h
DU-145 [1] = assay: Cytotoxicity against human DU145 cells after 96 hrs by SRB assay; settings: DU-145, 96 h
PC-3 = assay: Cytotoxicity against human PC3 cells after 96 hrs by SRB assay; settings: PC-3, 96 h
LNCaP = assay: Cytotoxicity against human LNCAP cells after 96 hrs by SRB assay
PPC-1 = assay: Cytotoxicity against human PPC1 cells after 96 hrs by SRB assay
[2] = Cytotoxicity against mouse B16-F1 cells after 48 hrs by SRB assay; format: functional, cell-based; settings: B16-F1, 48 h
Bos taurus = organism: Bos taurus; assay: Inhibition of bovine brain tubulin assessed as blockade of microtubule polymerization
DU-145 [3] = assay: Cytotoxicity against human DU145 cells after 48 hrs by SRB assay; format: functional, cell-based; settings: DU-145, 48 h

Structure (SMILES) | IC50 (A-375) | IC50 (DU-145 [1]) | IC50 (PC-3) | IC50 (LNCaP; Homo sapiens, LNCaP, 96 h) | IC50 (PPC-1; Homo sapiens, PPC-1, 96 h) | IC50 [2] | IC50 (LNCaP; lncap) | IC50 (PPC-1; ppc-1) | Activity (Bos taurus) | IC50 (DU-145 [3])
COc1cc(C(=O)c2csc(-c3ncccn3)n2)cc(OC)c1OC | 4100 nM | 2810 nM | 2660 nM | 2370 nM | 1190 nM |  |  |  |  | 
O=C(c1ccccn1)c1csc(-c2ccccc2)n1 | > 100000 nM | > 20000 nM | > 20000 nM | > 20000 nM | > 20000 nM | > 100000 nM |  |  |  | 
COc1cc(NC(=O)c2csc(-c3ccccc3)n2)cc(OC)c1OC | > 100000 nM | > 20000 nM | > 20000 nM | > 20000 nM | > 20000 nM | > 100000 nM |  |  |  | 
O=C(c1cc(O)c(O)c(O)c1)c1csc(-c2ccccc2)n1 | > 100000 nM | > 20000 nM | > 20000 nM | > 20000 nM | > 20000 nM | > 100000 nM |  |  |  | 
COC(=O)c1ccc(-c2nc(C(=O)c3cc(OC)c(OC)c(OC)c3)cs2)cc1 | > 100000 nM | > 20000 nM | > 20000 nM | > 20000 nM | > 20000 nM | > 100000 nM |  |  |  | 
COc1cc(C(=O)c2csc(-c3cccc(F)c3)n2)cc(OC)c1OC | 304 nM | 35 nM | 24 nM | 11 nM | 21 nM | 287 nM |  |  |  | 
COc1cc(C(=O)c2csc(-c3ccc(N)cc3)n2)cc(OC)c1OC | 11 nM | 20 nM | 12 nM | 13 nM | 15 nM | 29 nM |  |  |  | 
COc1cc(NC(=O)[C@@H]2CSC(c3cc(OC)c(OC)c(OC)c3)N2)cc(OC)c1OC (mixture of isomers) | > 100000 nM | > 20000 nM | > 20000 nM | > 20000 nM | > 20000 nM | > 100000 nM |  |  |  | 
COc1cc(C(=O)c2cscn2)cc(OC)c1OC | > 100000 nM | > 20000 nM | > 20000 nM | > 20000 nM | > 20000 nM | > 100000 nM |  |  |  | 
COc1cc(NC(=O)[C@@H]2CSC(c3ccccc3)N2)cc(OC)c1OC (mixture of isomers) | > 100000 nM | > 20000 nM | > 20000 nM | > 20000 nM | > 20000 nM | > 100000 nM |  |  |  | 
CC(=O)Nc1ccc(C2N[C@H](C(=O)Nc3ccc4c(c3)Cc3ccccc3-4)CS2)cc1 (mixture of isomers) |  | 1900 nM | 2100 nM | 3500 nM | 1600 nM |  |  |  |  | 
COc1ccc(C(=O)c2csc(-c3ccccc3)n2)cc1 | > 100000 nM | > 20000 nM | > 20000 nM | > 20000 nM | > 20000 nM | > 100000 nM |  |  |  | 
COc1ccc(C(=O)c2csc(-c3ccccc3)n2)cc1OC | > 100000 nM | > 20000 nM | > 20000 nM | > 20000 nM | > 20000 nM | > 100000 nM |  |  |  | 
COc1cc(OC)cc(C(=O)c2csc(-c3ccccc3)n2)c1 | 170 nM | 424 nM | 301 nM | 323 nM | 242 nM | 350 nM |  |  |  | 
COc1cc(C(=O)c2csc(-c3cccs3)n2)cc(OC)c1OC | 20 nM | 22 nM |  | 9 nM | 13 nM | 38 nM |  |  |  | 
COc1cccc(C(=O)c2csc(-c3ccccc3)n2)c1 | > 100000 nM | > 20000 nM | > 20000 nM | > 20000 nM | > 20000 nM | > 100000 nM |  |  |  | 
CCCCCCCCCCCCCCCCNC(=O)[C@@H]1CSC(c2ccc(NC(C)=O)cc2)N1 (mixture of isomers) | 2100 nM | 1700 nM |  | 1000 nM | 400 nM | 2200 nM |  |  |  | 
COc1cc(C(=O)c2csc(-c3ccncc3)n2)cc(OC)c1OC [listing 1 of 2 here] | > 100000 nM | > 20000 nM | > 20000 nM | > 20000 nM | > 20000 nM | > 100000 nM |  |  |  | 

Structure (SMILES) | IC50 (A-375) | IC50 (DU-145 [1]) | IC50 (PC-3) | IC50 (LNCaP; Homo sapiens, LNCaP, 96 h) | IC50 (PPC-1; Homo sapiens, PPC-1, 96 h) | IC50 [2] | IC50 (LNCaP; lncap) | IC50 (PPC-1; ppc-1) | Activity (Bos taurus) | IC50 (DU-145 [3])
COc1cc(C(=O)c2csc(-c3ccc(Br)cc3)n2)cc(OC)c1OC | 13 nM | 21 nM | 18 nM | 44 nM | 21 nM | 32 nM |  |  |  | 
COc1cc(NC(=O)[C@H]2CSC(c3ccccc3)=N2)cc(OC)c1OC |  | > 20000 nM | 13200 nM | 16800 nM | 3400 nM | 30400 nM |  |  |  | 
COc1cc(C(=O)c2csc(-c3ccc([N+](=O)[O-])cc3)n2)cc(OC)c1OC |  | 95 nM | 56 nM | 39 nM | 34 nM |  |  |  |  | 
COc1cc(C(=O)c2csc(-c3ccncc3)n2)cc(OC)c1OC [listing 2 of 2 here] |  |  |  |  |  |  | 16600 nM | 18000 nM |  | 
CCCCCCCCCCCCCCCCC(=O)c1csc(-c2ccccc2)n1 | 16000 nM | > 20000 nM | > 20000 nM | > 20000 nM | > 20000 nM | 18600 nM |  |  |  | 
O=C(c1csc(-c2ccccc2)n1)c1ccccc1F | > 100000 nM | > 20000 nM | > 20000 nM | > 20000 nM | > 20000 nM | > 100000 nM |  |  |  | 
COc1cc(C(=O)c2csc(-c3ccccc3)n2)cc(OC)c1OC | 28 nM | 71 nM | 21 nM | 28 nM | 43 nM | 55 nM |  |  | Dose-dependent effect | 
CCc1ccc(-c2nc(C(=O)c3cc(OC)c(OC)c(OC)c3)cs2)cc1 |  | 31 nM | 27 nM | 60 nM | 22 nM | 70 nM |  |  |  | 
COc1ccccc1C(=O)c1csc(-c2ccccc2)n1 | 70300 nM | > 20000 nM | > 20000 nM | > 20000 nM | > 20000 nM | 59400 nM |  |  |  | 
COc1cc(C(=O)c2csc(-c3ccc(C#N)cc3)n2)cc(OC)c1OC | 59 nM | 52 nM | 30 nM | 15 nM | 19 nM |  |  |  |  | 
O=C(c1ccccc1)c1csc(-c2ccccc2)n1 | > 100000 nM | > 20000 nM | > 20000 nM | > 20000 nM | > 20000 nM | > 100000 nM |  |  |  | 
COc1cc(C(=O)c2csc(-c3ccccc3F)n2)cc(OC)c1OC | 30 nM | 114 nM | 82 nM | 53 nM | 52 nM | 27 nM |  |  |  | 
COc1cc(C(=O)c2csc(-c3ccc(C)cc3)n2)cc(OC)c1OC | 11 nM | 7 nM | 5 nM |  | 6 nM | 21 nM |  |  |  | 
COc1ccc(-c2nc(C(=O)c3cc(OC)c(OC)c(OC)c3)cs2)cc1OC | 34 nM |  | 69 nM | 38 nM | 56 nM | 161 nM |  |  |  | 102000 nM
COc1cc(C(=O)c2csc(-c3ccc(C(F)(F)F)cc3)n2)cc(OC)c1OC | 23 nM | 50 nM | 58 nM | 94 nM | 76 nM |  |  |  |  | 
COc1cc(C(=O)c2csc(-c3ccc(C(=O)O)cc3)n2)cc(OC)c1OC | > 100000 nM | > 20000 nM | > 20000 nM | > 20000 nM | > 20000 nM | > 100000 nM |  |  |  | 
COc1cc(NC(=O)[C@@H]2CSC(c3ccccc3)=N2)cc(OC)c1OC | 22800 nM | > 20000 nM | > 20000 nM | > 20000 nM | 5300 nM | 38300 nM |  |  |  | 
COc1cc(C(=O)c2csc(-c3ccc(F)cc3)n2)cc(OC)c1OC | 33 nM |  | 13 nM | 6 nM |  | 43 nM |  |  |  | 
